# Test results as given in US20240228647A1, “OFATUMUMAB FOR TREATING MULTIPLE SCLEROSIS IN ASIAN PATIENTS” (Novartis AG, priority 2021, published 2024).
# Key:
# patients with RMS = type: in vivo, human; conditions: human, in vivo
# Description: Ofatumumab was investigated in 1882 patients with RMS from two identical Phase III randomized, double-blind, double-dummy, active-comparator controlled, parallel-group, multicenter studies of identical design (Study I and Study II). Patients were randomized to receive either ofatumumab, OMB (20 mg s.c injections every 4 weeks, after an initial loading regimen of 3 injections on Day 1, 7, and 14), or teriflunomide, TER (14 mg p.o. once a day) as active comparator. For brevity, the teriflunomide data are not shown hereinafter.
# The maximum treatment duration for an individual patient was 30 study months (approximately 2.5 years). The two studies included a total of 71 patients of Asian race (36 patients in ofatumumab and 35 patients in teriflunomide treatment groups). This Example also includes the Asian patients data from oncology studies (Study A and Study B), as supportive data, where required.
# For the safety analyses of this report, non-serious treatment emergent adverse events (TEAEs) up to and including safety cut-off (i.e. 100 days after last study drug administration) and serious TEAEs regardless of the safety cutoff were considered (if reported prior to the data cut-off of Studies I and II). Common terminology criteria for adverse events (CTCAE) grading was used to record the severity of each AE. The latest version of CTCAE available at the time of TEAE reporting was used. […] The three most frequently reported AEs by SOC were ‘General disorders and administration site conditions’ ‘Infections and infestations’ and ‘Injury, poisoning and procedural complications’ in the Asian and ROW subgroups by race (Table 7). […] In the Asian subgroup, 1 patient experienced SAEs of urinary tract infections, urosepsis and testicular infarction in the ofatumumab group and 1 patient reported an SAE of nephrolithiasis in the teriflunomide group (Table 8). Due to the small number of Asian patients by race and region, results should be interpreted with caution.
# AEs of special interest were summarized by risk name, PT and treatment. Furthermore, the incidence of any AE that fulfilled the search terms as defined in eCRS were summarized by risk name, level, and maximum CTCAE grade. In this section, AESIs are first described for subgroups by race and then by region. […] The definitions of AEs of special interest correspond to the identified or potential risks for ofatumumab and its class of drug as well as those for the comparator (teriflunomide). AESIs, based on the safety profiles of ofatumumab, comparator, and other anti-CD20 mABs are: • Injection-related reactions including injection-systemic reaction and injection-site • reactions • Infections, including opportunistic infections, HBV infection reactivation and PML • Malignant and premalignant disorders • Hepatic Safety • Neutropenia
# serum IgG and IgM levels = conditions: cited from earlier work
# serum Ig levels = conditions: cited from earlier work
compound,measurement,setting,value
C/C(O)=C(\C#N)C(=O)Nc1ccc(C(F)(F)F)cc1 [teriflunomide],"AE by PT: alopecia, %",patients with RMS,15.3%
same,"AE by PT: alopecia, patients",patients with RMS,138
same,"AE by PT: nasopharyngitis, %",patients with RMS,17.2%
same,"AE by PT: nasopharyngitis, patients",patients with RMS,155
same,"AE by PT: pyrexia, %",patients with RMS,14.3%
same,"AE by PT: pyrexia, patients",patients with RMS,5
same,"AE by PT: upper respiratory tract infection, %",patients with RMS,5.7%
same,"AE by PT: upper respiratory tract infection, patients",patients with RMS,2
same,"Patients who experienced at least 1 AE, %",patients with RMS,84.2%
same,"SAE by PT: Appendicitis, %",patients with RMS,0.2%
same,"SAE by PT: Appendicitis, patients",patients with RMS,2
same,"Serious TEAE: Infections and infestations, %",patients with RMS,1.9%
rituximab [RTX],Decrease of IgM levels in serum per year,serum IgG and IgM levels,5.0%
ocrelizumab,Reduction of IgG levels,"serum Ig levels; after two years (96 weeks), FIG. 6",approx. 5%
same,"Reduction in serum Ig levels, approximate mean rate per year","serum Ig levels; per year, over 5.5 years",3-4%
